According to patent publication US10183913B2, “Pyrazole compound” (Sumitomo Dainippon Pharma Co., Ltd., priority 2010, dated 2019):
Like-named read-outs stand apart in the source and are kept apart here.

What was measured:
[1] = target: human serotonin transporter (h-SERT) (Homo sapiens (Human), UniProt P31645); assay: [3H] citalopram binding assay to evaluate human serotonin reuptake inhibitory action (h-SERT binding assay)
Method: Citalopram Binding Assay to Evaluate Human Serotonin Reuptake Inhibitory Action
(§1) Preparation of the Cells and Membrane Preparations
In the experiment, human serotonin transporter (h-SERT) was expressed in CHO cells (h-SERT/CHO). The cells were incubated with F12 containing 10% FCS, 500 μg/mL Geneticin and 100 U/mL penicillin—100 μg/mL streptmycin (all manufactured by Sigma Aldrich) in an incubator containing 5% CO2; detached and collected using a SERT buffer [50 mmol/L Tris-HCl comprising 120 mmol/L NaCl and 5 mmol/L KCl (pH=7.4)]; homogenized with a homogenizer manufactured by Teflon (trademark); and then centrifuged (50,000×g, 30 min, 4° C.). The precipitate was suspended again in the appropriate amount of SERT buffer (to give a membrane preparation), and stored at −80° C. until used. The amount of protein in the membrane preparation was assayed by Dye Reagent Concentrate (manufactured by BIO-RAD) using bovine serum albumin (manufactured by Sigma Aldrich) as a standard.
1-2. h-SERT Binding Assay
The [^3H] citalopram binding was measured according to the method disclosed in Owens M. J. et al., J. Pharm. […] The solution was reacted at room temperature for 60 minutes, and then quickly suction-filtered under reduced pressure through a glass fiber filter coated with 0.05% aq. polyethyleneimine. The glass fiber filter was washed twice with […] of the SERT buffer, placed in a plastic vial containing 4 mL of liquid scintillator (ACS-II, manufactured by Amersham) or Ecoscint A (manufactured by National Diagnostics), and the remaining radioactivity on the filter paper was assayed with a liquid scintillation counter.

[2] = target: T1, human serotonin 2C receptor (h-5-HT2C) (Homo sapiens (Human), UniProt P28335); assay: [3H] mesulergine binding assay to evaluate affinity for human 5-HT2C receptor; settings: h-5-HT2C/CHO membrane preparation, read-out: Test Ex. 2: 5-HT2C receptor binding inhibition constant Ki
T1 sequence (P28335 whole entry, looked up): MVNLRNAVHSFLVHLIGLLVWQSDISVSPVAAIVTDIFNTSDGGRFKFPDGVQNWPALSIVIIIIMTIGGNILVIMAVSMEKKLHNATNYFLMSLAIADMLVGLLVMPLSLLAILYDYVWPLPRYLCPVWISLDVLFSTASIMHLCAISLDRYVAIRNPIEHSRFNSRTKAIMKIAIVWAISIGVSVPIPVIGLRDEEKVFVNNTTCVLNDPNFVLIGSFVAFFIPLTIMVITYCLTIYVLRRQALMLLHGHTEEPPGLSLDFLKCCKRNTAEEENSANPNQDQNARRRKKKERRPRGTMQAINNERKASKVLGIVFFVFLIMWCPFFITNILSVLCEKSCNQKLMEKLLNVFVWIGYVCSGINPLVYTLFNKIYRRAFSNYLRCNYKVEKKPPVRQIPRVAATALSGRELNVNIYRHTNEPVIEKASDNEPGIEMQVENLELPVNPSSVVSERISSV
Method: Mesulergine Binding Assay to Evaluate Affinity for Human 5-HT2C Receptor
as §1
In the experiment, human serotonin 2C receptor (h-5-HT2C) was expressed in CHO cells (h-5-HT2C/CHO). The cells were incubated with UltraCHO Lipuid (trademark) (manufactured by BioWhitakker) containing 1% FBS, 400 μg/mL Geneticin, 100 U/mL penicillin—100 μg/mL streptomycin (all manufactured by Sigma Aldrich) and 250 μg/mL Zeosin (manufactured by InvivoGen) in an incubator containing 5% CO2; detached and collected using 50 mmol/L Tris-HCl (pH=7.4); homogenized with a homogenizer manufactured by Teflon (trademark); and then centrifuged (48,000×g, 25 min, 4° C.). The precipitate was suspended again in the appropriate amount of 50 mmol/L Tris-HCl (to give a membrane preparation), and stored at −80° C. until used. The amount of protein in the membrane preparation was assayed by Dye Reagent Concentrate (manufactured by BIO-RAD) using bovine serum albumin (manufactured by Sigma Aldrich) as a standard.
2-2. 5-HT2C Receptor Binding Assay
A solution of 200 μL in total was prepared by mixing 50 μL of [^3H] mesulergine (manufactured by GE Healthcare) diluted with 50 mmol/L Tris-HCl (pH=7.4) (final concentration: about 2 nmol/L), 149 μL of the h-5-HT2C/CHO membrane preparation (protein amount: 20 μg/well), and 1 μL of the test drug dissolved in dimethylsulfoxide. The solution was reacted at 37° C. for 30 minutes, and then quickly suction-filtered under reduced pressure through a glass fiber filter coated with 1% aq. bovine serum albumin. The glass fiber filter was washed twice with 250 μL of 50 mmol/L Tris-HCl (pH=7.4), placed in a plastic vial containing 4 mL of liquid scintillator (ACS-II, manufactured by Amersham) or Ecoscint A (manufactured by National Diagnostics), and the remaining radioactivity on the filter paper was assayed with a liquid scintillation counter. The non-specific binding of [^3H] mesulergine was defined as a binding amount in the presence of 10 μmol/L SB206553 (manufactured by Sigma Aldrich). The IC50 value was calculated according to Hill analysis, and the binding inhibition constant (Ki) was calculated according to the following formula: Binding inhibition constant (Ki)=IC50/(1+S/Kd) wherein S is a concentration of the added [^3H] mesulergine, and Kd is a binding dissociation constant of [^3H] mesulergine which was calculated from a saturated binding assay using the same cell membrane.

[3] = target: T1, human serotonin 2C receptor (h-5-HT2C); assay: 5-HT2C receptor agonistic action assay (FLIPR Calcium 4 Assay kit, h-5-HT2C/CHO cells); assay type: cell-based
Method: 3-1. The Cells and Inoculation Thereof
In the experiment, human serotonin 2C receptor (h-5-HT2C) was expressed in CHO cells (h-5-HT2C/CHO). The cells were incubated with UltraCHO Lipuid (trademark) (manufactured by BioWhitakker) containing 1% FBS, 400 μg/mL Geneticin, 100 U/mL penicillin—100 μg/mL streptomycin (all manufactured by Sigma Aldrich) and 250 μg/mL Zeosin (manufactured by InvivoGen) in an incubator containing 5% CO2. On the day before using the cells, they were detached and collected using 250 μg/mL Trypsin solution (manufactured by Nacalai Tesque), then inoculated in a 96 well flat clear bottom black polystyrene TC-treated microplates (manufactured by Corning) at 40000 cells/well/60 μL in an incubator containing 5% CO2 for 16 hours to 24 hours.
3-2. 5-HT2C Receptor Agonistic Action Assay
The 5-HT2C receptor agonistic action was evaluated with FLIPR Calcium 4 Assay kit (manufactured by Molecular Devices). In specific, to the cells inoculated in the plate were added Component A of FLIPR Calcium 4 Assay kit dissolved in 100 mL of HHBP buffer (1×Hanks buffer, 20 mmol/L HEPES, both manufactured by Gibco) at an amount of 40 μL/well, and the cells were incubated in an incubator containing 5% CO2 for 1 hour. Then, the cells were set in FLIPR TETRA (trademark) (manufactured by Molecular Devices), to the cells was added the test material diluted with HHBP buffer, 2.5 mmol/L Probenecid (manufactured by Sigma) (concentration after dilution: 10 μmol/L) at an amount of 20 μL/well, and the fluorescence was measured. Then, in order to evaluate the antagonistic action of the test material, 20 μL/well of 5-HT solution (manufactured by Sigma, final concentration: 0.1 nmol/L) was further added to the cells, and the fluorescence was measured.
The 5-HT2C receptor agonistic action of each test material was calculated as a rate of fluorescence enhancement wherein 100% was defined as a value when the cells were given 10 μmol/L 5-HT. Furthermore, the 5-HT2C receptor inverse agonistic action was calculated as a rate of fluorescence decay wherein −100% was defined as a value when the cells were given 10 μmol/L SB206553 (manufactured by Sigma Aldrich). A lower value of the 5-HT2C receptor agonistic action of the test material means that the material has a higher antagonistic action. In particular, when the value of the 5-HT2C receptor agonistic action of the test material is below 0%, the material has an inverse agonistic action for 5-HT2C receptor.

[4] = [3H] citalopram binding, read-out: Test Ex. 1: h-SERT binding inhibition constant Ki
[5] = test material 10 μmol/L, 100% = 10 μmol/L 5-HT, −100% = 10 μmol/L SB206553, below 0% = inverse agonistic action

| SMILES | Ki [1, 4] [nM] | Ki [2] [nM] | Test Ex. 3: 5-HT2C receptor agonistic action [3, 5] [%] | Test Ex. 3: 5-HT2C receptor agonistic action [3] [%] | Ki [1] [nM] |
| --- | --- | --- | --- | --- | --- |
| CNCc1cc(OCc2cc(Cl)ccc2F)n(CCC(C)(C)F)n1.Cl [Example 482, 1-{5-[(5-Chloro-2-fluorobenzyl)oxy]-1-(3-fluoro-3-methylbutyl)-1H-pyrazol-3-yl}-N-methylmethanamine hydrochloride] | 2.9 | 2.6 | −116 | – | – |
| CNCc1cc(OCc2cc(Cl)ccc2F)n(CCC(C)OC)n1 (stereo not drawn) [Compound 405] | 11 | 23 | −90 | – | – |
| CCNCc1cc(OCc2cc(F)ccc2F)n(CC2CCCCC2)n1 [Example 344, N-({1-(Cyclohexylmethyl)-5-[(2,5-difluorobenzyl)oxy]-1H-pyrazol-3-yl}methyl)ethanamine] | 33 | 6.7 | – | −82 | – |
| CNCc1cc(OCc2cc(Cl)ccc2F)n(CC2(OC)CCCCC2)n1 [Compound 434] | 4.5 | – | −87 | – | – |
| CNCc1cc(OC(F)(F)c2ccccc2)n(CC2CCCCC2)n1.Cl [Example 349, 1-{1-(Cyclohexylmethyl)-5-[difluoro(phenyl)methoxy]-1H-pyrazol-3-yl}-N-methylmethanamine hydrochloride] | – | 18 | −82 | – | 3 |
| CNCc1cc(OCc2cc(F)c(F)cc2F)n(CCC2CC2)n1 [Example 426] | 0.99 | 14 | −99 | – | – |
| CNCc1cc(OCc2cc(Cl)ccc2F)n(CC(C)(C)C)n1 [Example 259, 1-{5-[(5-chloro-2-fluorobenzyl)oxy]-1-(2,2-dimethylpropyl)-1H-pyrazol-3-yl}-N-methylmethanamine] | – | – | −119 | – | – |
| CNCc1cc(OCc2ccccc2)n(C(CO)C2CCCCC2)n1.Cl (stereo not drawn) [Example 328, 2-{5-(Benzyloxy)-3-[(methylamino)methyl]-1H-pyrazol-1-yl}-2-cyclohexyl-ethanol hydrochloride] | – | 193 | −116 | – | 3.6 |
| CNCc1cc(OCc2cc(F)ccc2F)n(CCC(C)(C)F)n1.Cl [Example 481, 1-{5-[(2,5-Difluorobenzyl)oxy]-1-(3-fluoro-3-methylbutyl)-1H-pyrazol-3-yl}-N-methylmethanamine hydrochloride] | 0.85 | 22 | – | −109 | – |
| CNCc1cc(OCc2cc(F)ccc2F)n(CCC(C)(C)C)n1 [Example 266, 1-{5-[(2,5-difluorobenzyl)oxy]-1-(3,3-dimethylbutyl)-1H-pyrazol-3-yl}-N-methylmethanamine] | – | – | −86 | – | – |
| CNCc1cc(OCc2cc(Cl)ccc2F)n(CC2CCCCO2)n1 (single isomer, unassigned; (-)) [Example 474, (−)-1-{5-[(5-chloro-2-fluorobenzyl)oxy]-1-(tetrahydro-2H-pyran-2-ylmethyl)-1H-pyrazol-3-yl}-N-methylmethanamine] | – | – | −111 | – | – |
| CNCc1cc(OCc2cc(Cl)ccc2F)n(CCC(C)(C)OC)n1 [Example 275, 1-{5-[(5-chloro-2-fluorobenzyl)oxy]-1-(3-methoxy-3-methylbutyl)-1H-pyrazol-3-yl}-N-methylmethanamine] | – | – | – | −88 | – |
| CNCc1cc(OCc2cc(Cl)ccc2F)n(CC(C)C)n1 [Example 256, 1-{5-[(5-chloro-2-fluorobenzyl)oxy]-1-(2-methylpropyl)-1H-pyrazol-3-yl}-N-methylmethanamine] | – | – | −97 | – | – |
| CNC(C)c1cc(OCc2cc(F)ccc2F)n(CCC2CCCC2)n1 (single isomer, unassigned; (-)) [Example 476, (−)-1-{1-(2-cyclopentylethyl)-5-[(2,5-difluorobenzyl)-oxy]-1H-pyrazol-3-yl}-N-methylethanamine] | – | – | −72 | – | – |
| CNCc1cc(OCc2cc(Cl)ccc2F)n(CC2CCCCO2)n1.Cl (single isomer, unassigned; (+)) [Example 475, (+)-1-{5-[(5-chloro-2-fluorobenzyl)oxy]-1-(tetrahydro-2H-pyran-2-ylmethyl)-1H-pyrazol-3-yl}-N-methylmethanamine] | – | – | −95 | – | – |
| CNC(C)c1cc(OCc2cc(F)ccc2F)n(CCC2CCCC2)n1 (single isomer, unassigned; (+)) [Example 477, (+)-1-{1-(2-cyclopentylethyl)-5-[(2,5-difluorobenzyl)-oxy]-1H-pyrazol-3-yl}-N-methylethanamine] | – | – | −94 | – | – |
| CNCc1cc(OCc2cccc(OC)c2)n(CC2CCCCC2)n1 [Compound 42] | 4.9 | – | −106 | – | – |
